From patent US8338401B2, “Coumarin-amide derivatives and its preparation, said drug composition and its use” (Institute of Materia Medica Chinese Academy of Medical …, priority 2002, dated 2012)
“Also recorded” adds a separate entry of the source. Read-outs that look alike come from different tables or passages of the source.

Experiments:
[1] = Primary acute toxicity test; assay type: in vivo; conditions: mice
Procedure: 5 g/kg and 10 g/kg of compound 149 were administered orally to mice once and observed for 14 days. Body weights of 48 hours after administration in mice were no different. At 14th day after administration, the mouse average body weights in 5 g/kg and 10 g/kg groups increased 7 g and 5 g respectively. There was no any other different for every animal and no death were observed.

[2] = test system: kidney tubulointerstitial fibrosis caused by unilateral ureteral obstruction (UUO) in rats; experiment: Inhibition of kidney tubulointerstitial fibrosis caused by unilateral ureteral obstruction (UUO) in rats; assay type: in vivo, Male Wistar rats; conditions: for BUN / Scr. (serum creatinine): oral for 16 days
Procedure: Male Wistar rats with initial body weights of 180˜230 g were used. Unilateral ureteral obstruction was performed under pentobarbital anesthesia (35 mg/kg) and sterile conditions. Via a midline incision, the left ureteral was ligated. Sham surgery was performed by making a midline incision but leaving ureteral intact. Following surgery, rats were randomly divided into sham, model, Benazepril (4 mg/kg/day) and Losartan (10 mg/kg/day) as positive control, and compound 149 (5 mg/kg/day, 10 mg/kg/day and 20 mg/kg/day). Starting 2 day before surgery, Benazepril, Losartan and compound 149 were administered for 16 days orally. BUN and creatinine in serum were determined in the 11th and 16th day (Table 6) following initiation of Benazepril, Losartan and compound 149 treatment, at which time animals were killed and the kidneys were harvested. Tissues were dissected, weighed, fixed in 10% formaldehyde and embedded in paraffin wax for pathological analysis.

[3] = test system: chronic renal failure induced by 5/6 nephrectomy in rats; assay type: in vivo, Male Wistar rats
Procedure: The model on chronic renal failure induced by partial renal ablation in rats was set up according to the Guidelines of Pre-clinic Research for New Drugs. Male Wistar rats with initial body weights of 200 g, anesthetized with 35 mg/kg of pentobarbital i.p., the right kidney was removed, and the upper and lower pole […] of the left kidney were resected, stop bleeding, closed the abdominal and sutured. Four weeks following surgery, the BUN, creatinine and urinary protein in rats were determined. […] Rats were randomly divided into seven groups, 30/group, with sham, model, Benazepril (4 mg/kg/day) and Losartan (10 mg/kg/day) as positive control, and compound 149 groups (7.5 mg/kg/day, 15 mg/kg/day and 30 mg/kg/day, respectively). All the groups were administered intragastrically, once per day and 6 (six) times per week, till 16 weeks post surgery. Body weights were weighed to observe the growth of the rats. The above indexes were determined every 4 weeks up to the 16th week following the initiation of drug administration, and at each time, a number of animals were sacrificed and the kidneys were harvested for pathological analysis. Pathological lesions in chronic renal failure models are mainly glomerulosclerosis and interstitial fibrosis. According to the damage extents, glomerulosclerosis is divided into five grades (0 IV). 0 grade means no glomerulus pathological changes at all, and IV grade means ultimately glomerular sclerosis and glassy pathological changes.

[4] = test system: Salmonella typhimurium TA97, TA98, TA100 and TA102; experiment: Ames test; assay type: cell-based; conditions: 0.5-5000.0 μg/plate, presence or absence of S9
Procedure: His^− type Salmonella typhimurium TA97, TA98, TA100 and TA102 were employed. Concentration of the test compound was 0.5, 5.0, 50.0, 500.0, 5000.0 μg/plate. S9 was the microsome component of liver homogenate of a rat weighted 200 g. The test compound 149 was tested in the presence or absence of S9.
According to the Salmonella typhimurium/mammalian microsome enzyme mutagenic test method revised by Ames (1983), metabolism activated or non-metabolism activated plate incorporation assay was conducted on compound 149, and the strain which passed the assay was seeded to the culture medium and incubated at 37° C. under shaking for 15 hours. 100 μl compound solutions with various concentrations were added to 0.1 ml of the culture liquid, and then S9 mixture or phosphate buffer was added, and the mixtures were incubated in a 37° C. water bath for 20 minutes. After that, 2 ml of upper layer agar was added, mixed well and poured into a plate with lower layer agar and incubated at 37° C. for 48 hours. The number of the colonies in each plate was counted.

[5] = 8th week after administration (12 weeks after nephrectomy), 7.5 mg/kg
[6] = 8th week after administration (12 weeks after nephrectomy), 15 mg/kg
[7] = 8th week after administration (12 weeks after nephrectomy), 30 mg/kg
[8] = 8th week after administration (12 wk after nephrectomy), 7.5 mg/kg
[9] = 8th week after administration (12 wk after nephrectomy), 15 mg/kg
[10] = 8th week after administration (12 wk after nephrectomy), 30 mg/kg
[11] = 12th week after administration (16 weeks after nephrectomy), 7.5 mg/kg
[12] = 12th week after administration (16 weeks after nephrectomy), 15 mg/kg
[13] = 12th week after administration (16 weeks after nephrectomy), 30 mg/kg
[14] = 12th week after administration (16 wk after nephrectomy), 7.5 mg/kg
[15] = 12th week after administration (16 wk after nephrectomy), 15 mg/kg
[16] = 12th week after administration (16 wk after nephrectomy), 30 mg/kg

Cc1c(O)c([N+](=O)[O-])cc2cc(C(=O)Nc3ccc(O)c(C(=O)O)c3)c(=O)oc12 [Compound 149, 3-(3′-carboxy-4′-hydroxy-phenylamidocarbonyl)-6-nitro-7-hydroxy-8-methyl-coumarin]
death ([1]; 5 g/kg and 10 g/kg, observed for 14 days): no death | increase of average body weights at 14th day after administration ([1]; oral once, 5 g/kg): 7 g | Body weights of 48 hours after administration ([1]; oral once, 5 g/kg and 10 g/kg): no different | increase of average body weights at 14th day after administration ([1]; oral once, 10 g/kg): 5 g | improvement of each biochemical index compared with the positive controls ([2]; UUO rats): more significant than those of the Losartan group, and equivalent to those of the Benazepril group | inflammatory cell infiltration and tubulointerstitial fibrosis (pathological changes) ([2]; UUO rats): significantly attenuated | pathological results compared with the positive controls ([2]; UUO rats): better than Benazepril and equivalent with Losartan | BUN ([2]; UUO rats, 5.0 mg/kg): 23.71 ± 4.17 mg/dL | Scr. (serum creatinine) ([2]; UUO rats, 5.0 mg/kg): 1.58 ± 0.49 mg/kg | BUN ([2]; UUO rats, 10.0 mg/kg): 20.76 ± 1.56 mg/dL | Scr. (serum creatinine) ([2]; UUO rats, 10.0 mg/kg): 1.61 ± 0.36 mg/kg | BUN ([2]; UUO rats, 20.0 mg/kg): 20.77 ± 2.04 mg/dL | Scr. (serum creatinine) ([2]; UUO rats, 20.0 mg/kg): 1.60 ± 0.14 mg/kg | overall result in the renal interstitial fibrosis model compared with the positive controls ([2]; unilateral ureteral ligation in rats): better than Benazepril and corresponds to (slightly better than) Losartan | various parameters (BUN, Cre, TGF-β1, Ang II) compared with the positive controls Benazepril and Losartan ([3]; 5/6 nephrectomy rats): all better than those of the Benazepril group and are equivalent to those of the Losartan group | BUN [3, 5]: 22.35 ± 3.120 mg/dL | serum creatinine (Scr.) [3, 5]: 2.14 ± 0.500 mg/dL | BUN [3, 6]: 26.04 ± 4.234 mg/dL | serum creatinine (Scr.) [3, 6]: 1.80 ± 0.550 mg/dL | BUN [3, 7]: 30.54 ± 11.697 mg/dL | serum creatinine (Scr.) [3, 7]: 1.89 ± 0.184 mg/dL | AII (Angiotensin II) [3, 8]: 63.9 ± 13.2 pg/mL | UP (urinary protein) [3, 8]: 30.1 ± 16.6 mg/day | serum TGF-β1 [3, 8]: 20.0 ± 6.7 ng/mL | AII (Angiotensin II) [3, 9]: 49.9 ± 21.3 pg/mL | UP (urinary protein) [3, 9]: 30.4 ± 16.2 mg/day | serum TGF-β1 [3, 9]: 18.6 ± 12.2 ng/mL | AII (Angiotensin II) [3, 10]: 41.0 ± 12.5 pg/mL | UP (urinary protein) [3, 10]: 34.3 ± 12.1 mg/day | serum TGF-β1 [3, 10]: 18.9 ± 10.1 ng/mL | Glomerulosclerosis Grade (%): 0 ([3]; 8 wk after ad., 7.5 mg/kg): 15.7 ± 19.0% | Glomerulosclerosis Grade (%): I ([3]; 8 wk after ad., 7.5 mg/kg): 24.0 ± 21.1% | Glomerulosclerosis Grade (%): II ([3]; 8 wk after ad., 7.5 mg/kg): 30.0 ± 20.8% | Glomerulosclerosis Grade (%): III ([3]; 8 wk after ad., 7.5 mg/kg): 23.2 ± 28.5% | Glomerulosclerosis Grade (%): IV ([3]; 8 wk after ad., 7.5 mg/kg): 8.0 ± 13.0% | Glomerulosclerosis Total Grade ([3]; 8 wk after ad., 7.5 mg/kg): 5.7 ± 2.9 | Glomerulosclerosis Grade (%): 0 ([3]; 8 wk after ad., 15 mg/kg): 37.5 ± 29.3 % | Glomerulosclerosis Grade (%): I ([3]; 8 wk after ad., 15 mg/kg): 27.5 ± 16.3% | Glomerulosclerosis Grade (%): II ([3]; 8 wk after ad., 15 mg/kg): 18.8 ± 9.9% | Glomerulosclerosis Grade (%): III ([3]; 8 wk after ad., 15 mg/kg): 13.3 ± 20.7% | Glomerulosclerosis Grade (%): IV ([3]; 8 wk after ad., 15 mg/kg): 2.9 ± 8.2% | Glomerulosclerosis Total Grade ([3]; 8 wk after ad., 15 mg/kg): 3.9 ± 1.7 | Glomerulosclerosis Grade (%): 0 ([3]; 8 wk after ad., 30 mg/kg): 28.3 ± 20.8% | Glomerulosclerosis Grade (%): I ([3]; 8 wk after ad., 30 mg/kg): 34.2 ± 23.0% | Glomerulosclerosis Grade (%): II ([3]; 8 wk after ad., 30 mg/kg): 7.5 ± 8.8 % | Glomerulosclerosis Grade (%): III ([3]; 8 wk after ad., 30 mg/kg): 17.5 ± 30.7% | Glomerulosclerosis Grade (%): IV ([3]; 8 wk after ad., 30 mg/kg): 6.7 ± 13.4% | Glomerulosclerosis Total Grade ([3]; 8 wk after ad., 30 mg/kg): 4.9 ± 3.5 | BUN [3, 11]: 39.42 ± 4.686 mg/dL | serum creatinine (Scr.) [3, 11]: 2.73 ± 0.78 mg/dL | BUN [3, 12]: 37.32 ± 5.467 mg/dL | serum creatinine (Scr.) [3, 12]: 2.63 ± 0.38 mg/dL | BUN [3, 13]: 36.60 ± 5.422 mg/dL | serum creatinine (Scr.) [3, 13]: 2.10 ± 0.71 mg/dL | AII (Angiotensin II) [3, 14]: 48.3 ± 48.5 pg/mL | UP (urinary protein) [3, 14]: 66.7 ± 38.8 mg/day | serum TGF-β1 [3, 14]: 13.6 ± 7.1 ng/mL | AII (Angiotensin II) [3, 15]: 41.3 ± 28.4 pg/mL | UP (urinary protein) [3, 15]: 52.3 ± 34.4 mg/day | serum TGF-β1 [3, 15]: 12.3 ± 7.7 ng/mL | AII (Angiotensin II) [3, 16]: 19.2 ± 9.19 pg/mL | UP (urinary protein) [3, 16]: 48.2 ± 31.6 mg/day | serum TGF-β1 [3, 16]: 11.6 ± 6.7 ng/mL | Glomerulus pathological scores, compared with the model group ([3]; 12 weeks after nephrectomy (8 weeks since administration), compound 149 30 mg/kg, Losartan 10 mg/kg/day): less than that of the model group significantly | rates of 0 grade glomerylus in residual kidney, compared with the model group ([3]; 12 weeks after nephrectomy (8 weeks since administration), compound 149 30 mg/kg, Losartan 10 mg/kg/day, P<0.05): higher than that of the model group with significant difference | Glomerulosclerosis Grade (%): 0 ([3]; 12 wk after ad., 7.5 mg/kg): 0% | Glomerulosclerosis Grade (%): I ([3]; 12 wk after ad., 7.5 mg/kg): 2.3 ± 6.3% | Glomerulosclerosis Grade (%): II ([3]; 12 wk after ad., 7.5 mg/kg): 37.1 ± 16.0% | Glomerulosclerosis Grade (%): III ([3]; 12 wk after ad., 7.5 mg/kg): 51.4 ± 8.6% | Glomerulosclerosis Grade (%): IV ([3]; 12 wk after ad., 7.5 mg/kg): 13.8 ± 20.6% | Glomerulosclerosis Total Grade ([3]; 12 wk after ad., 7.5 mg/kg): 8.6 ± 1.9 | Glomerulosclerosis Grade (%): 0 ([3]; 12 wk after ad., 15 mg/kg): 0% | Glomerulosclerosis Grade (%): I ([3]; 12 wk after ad., 15 mg/kg): 8.1 ± 14.1% | Glomerulosclerosis Grade (%): II ([3]; 12 wk after ad., 15 mg/kg): 38.1 ± 27.4% | Glomerulosclerosis Grade (%): III ([3]; 12 wk after ad., 15 mg/kg): 46.2 ± 26.1% | Glomerulosclerosis Grade (%): IV ([3]; 12 wk after ad., 15 mg/kg): 9.1 ± 12.6% | Glomerulosclerosis Total Grade ([3]; 12 wk after ad., 15 mg/kg): 7.7 ± 1.7 | Glomerulosclerosis Grade (%): 0 ([3]; 12 wk after ad., 30 mg/kg): 0% | Glomerulosclerosis Grade (%): I ([3]; 12 wk after ad., 30 mg/kg): 2.0 ± 4.5% | Glomerulosclerosis Grade (%): II ([3]; 12 wk after ad., 30 mg/kg): 71.3 ± 11.5 % | Glomerulosclerosis Grade (%): III ([3]; 12 wk after ad., 30 mg/kg): 26.7 ± 7.8 % | Glomerulosclerosis Grade (%): IV ([3]; 12 wk after ad., 30 mg/kg): 0% | Glomerulosclerosis Total Grade ([3]; 12 wk after ad., 30 mg/kg): 6.7 ± 0.2 | number of grade III glomerulus, compared with the model group ([3]; 16 weeks after nephrectomy (12 weeks since administration), compound 149 30 mg/kg (P<0.01), Losartan 10 mg/kg/day (P<0.05)): less than that of the model group significantly | affection with the major organs such as heart, liver, spleen, and lungs (pathological results) ([3]; rat, in vivo): no significant affection | mutagenesis (Ames test result) [4]: no mutagenesis; also recorded: negative | number of colony formation of Salmonella Typhimurium TA97, TA98, TA100 and TA102 [4]: did not increase
